Tests used:
HCV 1a replicon = test: Cell-based HCV replicon assay (TaqMan), genotype 1a replicon; details: Hepatitis C virus, 72 h, HCV genotype 1a replicon cells, replicon RNA by real time PCR, day 3; EC90 = concentration for ΔCT=3.2 over baseline
In short: (§1)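 Replicon cells seeded at 5000 cells/well with compound as 10 serial 2-fold dilutions (top 250 μM to 1 μM), 0.5% DMSO, 5% FBS, 3 days. NS5B replicon RNA quantified by multiplex TaqMan RT-PCR against GAPDH. EC50 = concentration giving ΔCT=1 over baseline; EC90 = ΔCT=3.2, from sigmoid fit.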

HCV 1b replicon = test: Cell-based HCV replicon assay (TaqMan), genotype 1b replicon; details: Hepatitis C virus, 72 h, HCV genotype 1b replicon cells, replicon RNA by real time PCR, day 3; EC90 = concentration for ΔCT=3.2 over baseline
Procedure: Measurement of inhibition by compounds of the present invention was performed using the HCV replicon system. Several different replicons encoding different HCV genotypes or mutations were used. In addition, potency measurements were made using different formats of the replicon assay, including different ways of measurements and different plating formats. See Jan M. Vrolijk et al., A replicons-based bioassay for the measurement of interferons in patients with chronic hepatitis C, 110 J. VIROLOGICAL METHODS 201 (2003); Steven S. Carroll et al., Inhibition of Hepatitis C Virus RNA Replication by 2′-Modified Nucleoside Analogs, 278(14) J. BIOLOGICAL CHEMISTRY 11979 (2003). However, the underlying principles are common to all of these determinations, and are outlined below.
TaqMan®-Based Assay Protocol:
Compounds of the present invention were assayed for cell-based anti-HCV activity using the following protocol. Replicon cells were seeded at 5000 cells/well in 96-well collagen I-coated Nunc plates in the presence of the test compound. Various concentrations of test compound, typically in 10 serial 2-fold dilutions, were added to the assay mixture, with the starting concentration ranging from 250 μM to 1 μM. The final concentration of DMSO was 0.5%, fetal bovine serum was 5%, in the assay media. Cells were harvested on day 3 by the addition of 1× cell lysis buffer (Ambion cat #8721). The replicon RNA level was measured using real time PCR (TaqMan® assay). The amplicon was located in 5B. The PCR primers were: 5B.2F, ATGGACAGGCGCCCTGA (SEQ. ID NO. 1); 5B.2R, […] (SEQ. ID NO. 2); the probe sequence was FAM-labeled CACGCCATGCGCTGCGG (SEQ. ID NO. 3). GAPDH RNA was used as endogenous control and was amplified in the same reaction as NS5B (multiplex PCR) using primers and VIC-labeled probe recommended by the manufacturer (PE Applied Biosystem). The real-time […] reactions were run on ABI PRISM 7900HT Sequence Detection System using the following program: 48° C. for 30 minutes, 95° C. for 10 minutes, 40 cycles of 95° C. for 15 sec, 60° C. for 1 minute. The ΔCT values (CT5B-CTGAPDH) were plotted against the concentration of test compound and fitted to the sigmoid dose-response model using XLfit4 (MDL). EC50 was defined as the concentration of inhibitor necessary to achieve ΔCT=1 over the projected baseline; EC90 the concentration necessary to achieve ΔCT=3.2 over the baseline. Alternatively, to quantitate the absolute amount of replicon RNA, a standard curve was established by including serially diluted T7 transcripts of replicon RNA in the Taqman assay. All TaqMan® reagents were from PE Applied Biosystems. Such an assay procedure was described in detail in e.g. Malcolm et al., Antimicrobial Agents and Chemotherapy 50: 1013-1020 (2006).
HCV replicon EC50 assay data for various replicons and mutants was calculated for selected compounds of the present invention using this method and is provided in the tables above herein.

HCV 1a Y93H replicon = test: Cell-based HCV replicon assay (TaqMan), 1a Y93H mutant replicon; details: Hepatitis C virus, 72 h, read-out: 1a Y93H EC90, HCV 1a Y93H mutant replicon cells, replicon RNA by real time PCR, day 3; EC90 = concentration for ΔCT=3.2 over baseline
In short: as §1

HCV 2b replicon = test: Cell-based HCV replicon assay (TaqMan), genotype 2b replicon; details: Hepatitis C virus, 72 h, read-out: 2b EC90, HCV genotype 2b replicon cells, replicon RNA by real time PCR, day 3; EC90 = concentration for ΔCT=3.2 over baseline
In short: as §1

| SMILES | EC90 (HCV 1a replicon) [nM] | EC90 (HCV 1b replicon) [nM] | EC90 (HCV 1a Y93H replicon) [nM] | EC90 (HCV 2b replicon) [nM] |
| --- | --- | --- | --- | --- |
| COC(=O)N[C@H](C(=O)N1CCC[C@H]1c1ncc(-c2ccc3cc(-c4ccc5c(ccc6nc([C@@H]7C[Si](C)(C)CN7C(=O)[C@@H](NC(=O)OC)C7CC7)[nH]c65)c4)ccc3c2)[nH]1)C1CC1 [Compound 114] | 0.06 | > 1 | > 100 | > 100 |
| CC[C@H](C)[C@H](NC(=O)OC)C(=O)N1CCC[C@H]1c1ncc(-c2ccc(-c3ccc4c(ccc5nc([C@@H]6C[Si](C)(C)CN6C(=O)[C@@H](NC(=O)OC)[C@@H](C)CC)[nH]c54)c3)cc2)[nH]1 [Compound 22] | 0.35 | 0.03 | 746 | 250 |
| COC(=O)N[C@H](C(=O)N1CCC[C@H]1c1ncc(-c2ccc(-c3ccc4c(ccc5nc([C@@H]6C[Si](C)(C)CN6C(=O)[C@H](NC(=O)OC)C(C)(C)OC)[nH]c54)c3)cc2)[nH]1)C(C)C [Compound 74] | 1.3 | 0.03 | > 1000 | 380 |
| COC(=O)N[C@@H](C(=O)N1CCC[C@@H]1c1ncc(-c2ccc3cc(-c4ccc5c(ccc6nc([C@H]7C[Si](C)(C)CN7C(=O)OC(C)(C)C)[nH]c65)c4)ccc3c2)[nH]1)C(C)C [Compound 116] | > 1 | > 1 | > 100 | > 100 |
| COC(=O)N[C@@H](CSC)C(=O)N1C[Si](C)(C)C[C@H]1c1nc2ccc3cc(-c4ccc(-c5cnc([C@@H]6CCCN6C(=O)[C@@H](NC(=O)OC)C(C)C)[nH]5)cc4)ccc3c2[nH]1 [Compound 76] | 0.25 | 0.03 | 984 | 108 |
| COC(=O)NC(C(=O)N1C[Si](C)(C)C[C@H]1c1nc2ccc3cc(-c4ccc5cc(-c6cnc([C@@H]7CCCN7C(=O)[C@H](NC(=O)OC)C(C)C)[nH]6)ccc5c4)ccc3c2[nH]1)[C@@H](C)OC (stereo partly shown) [Compound 117] | 0.039 | > 1 | > 100 | > 100 |
| COC(=O)N[C@@H](CC1CC1)C(=O)N1C[Si](C)(C)C[C@H]1c1nc2ccc3cc(-c4ccc(-c5cnc([C@@H]6CCCN6C(=O)[C@@H](NC(=O)OC)C(C)C)[nH]5)cc4)ccc3c2[nH]1 [Compound 77] | 0.56 | 0.03 | > 1000 | 221 |
| COC(=O)N[C@H](C(=O)N1C[Si](C)(C)C[C@H]1c1nc2ccc3cc(-c4ccc(-c5nc(Cl)c([C@@H]6C[C@H]7C[C@H]7N6C(=O)[C@@H](NC(=O)OC)C(C)C)[nH]5)cc4)ccc3c2[nH]1)C(C)C [Compound 108] | 0.04 | 0.02 | 151 | 543 |
| CCN(CC)[C@H](C(=O)N1C[Si](C)(C)C[C@H]1c1nc2ccc3cc(-c4ccc(-c5cnc([C@@H]6CCCN6C(=O)[C@@H](NC(=O)OC)C(C)C)[nH]5)cc4)ccc3c2[nH]1)c1ccccc1 [Compound 78] | 0.14 | 0.03 | 514 | 6.5 |
| COC(=O)N[C@@H](CN(C)C)C(=O)N1C[Si](C)(C)C[C@H]1c1nc2ccc3cc(-c4ccc(-c5cnc([C@@H]6CCCN6C(=O)[C@@H](NC(=O)OC)C(C)C)[nH]5)cc4)ccc3c2[nH]1 [Compound 73] | 0.19 | 0.05 | > 1000 | 110 |

Source: patent US20150057246A1, “SILYL-CONTAINING HETEROCYCLIC COMPOUNDS AND METHODS OF USE THEREOF FOR THE TREATMENT OF VIRAL DISEASES” (priority 2012, published 2015)
